The source of these data is patent US20130261178A1, “PHENOXYPROPANOL DERIVATIVES AND THEIR USE IN TREATING CARDIAC AND CARDIOVASCULAR DISEASES” (priority 2010, published 2013).

In one data set the target is T1, human beta2-adrenoceptor (Homo sapiens, UniProt P07550).
T1 construct: expressed in transfected cells; host or cells: CHO cells
Kind of data set: 3H-CGP12177 whole-cell binding, CHO cells expressing human beta2-adrenoceptor. The conditions noted are these: 3H-CGP 12177 whole cell binding, mean ± s.e.mean; for Kd: log KD, read-out: Beta 2 Log KD (converted). The text has this:
(§1) The selectivity of a ligand is given by the ratio of beta-1 to beta-2 KD.

The target in a further data set is T2, human beta3-adrenoceptor (Homo sapiens, UniProt P13945).
T2 construct: expressed in transfected cells; host or cells: CHO cells
Kind of data set: 3H-CGP12177 whole-cell binding, CHO cells expressing human beta3-adrenoceptor. The conditions noted are these: 3H-CGP 12177 whole cell binding, log KD, mean ± s.e.mean, read-out: Beta 3 Log KD (converted).

Another data set concerns the target beta1-adrenoceptor (Homo sapiens, UniProt P08588). Put plainly: 3H-CGP12177 whole-cell binding, CHO cells expressing human beta1-adrenoceptor. The conditions noted are these: 3H-CGP 12177 whole cell binding, mean ± s.e.mean; for Kd: log KD, read-out: Beta 1 Log KD (converted). Also on record: expressed in transfected cells; host or cells: CHO cells.
Text: as §1

T1 sequence (P07550 whole entry): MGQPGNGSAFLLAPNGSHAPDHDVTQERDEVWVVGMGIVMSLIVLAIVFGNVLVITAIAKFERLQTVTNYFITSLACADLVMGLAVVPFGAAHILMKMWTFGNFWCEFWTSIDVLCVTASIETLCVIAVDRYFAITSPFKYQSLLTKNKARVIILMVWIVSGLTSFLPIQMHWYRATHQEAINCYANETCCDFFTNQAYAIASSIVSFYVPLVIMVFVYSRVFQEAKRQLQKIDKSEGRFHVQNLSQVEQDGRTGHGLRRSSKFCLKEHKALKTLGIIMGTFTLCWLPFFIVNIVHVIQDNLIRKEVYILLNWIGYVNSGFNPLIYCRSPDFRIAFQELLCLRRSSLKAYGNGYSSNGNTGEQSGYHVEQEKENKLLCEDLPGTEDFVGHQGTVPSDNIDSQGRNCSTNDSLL
T2 sequence (P13945 whole entry): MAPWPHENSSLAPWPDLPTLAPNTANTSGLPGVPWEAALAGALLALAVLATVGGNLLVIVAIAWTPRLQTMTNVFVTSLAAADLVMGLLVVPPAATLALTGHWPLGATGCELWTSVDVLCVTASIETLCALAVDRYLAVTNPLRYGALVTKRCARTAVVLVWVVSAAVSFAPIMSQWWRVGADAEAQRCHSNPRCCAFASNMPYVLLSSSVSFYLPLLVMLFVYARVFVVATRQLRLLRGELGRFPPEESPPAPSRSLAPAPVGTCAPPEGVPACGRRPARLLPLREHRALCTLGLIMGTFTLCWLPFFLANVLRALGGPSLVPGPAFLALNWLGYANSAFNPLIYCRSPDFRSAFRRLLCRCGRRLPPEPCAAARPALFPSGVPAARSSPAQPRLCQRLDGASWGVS
beta1-adrenoceptor, sequence (P08588 whole entry): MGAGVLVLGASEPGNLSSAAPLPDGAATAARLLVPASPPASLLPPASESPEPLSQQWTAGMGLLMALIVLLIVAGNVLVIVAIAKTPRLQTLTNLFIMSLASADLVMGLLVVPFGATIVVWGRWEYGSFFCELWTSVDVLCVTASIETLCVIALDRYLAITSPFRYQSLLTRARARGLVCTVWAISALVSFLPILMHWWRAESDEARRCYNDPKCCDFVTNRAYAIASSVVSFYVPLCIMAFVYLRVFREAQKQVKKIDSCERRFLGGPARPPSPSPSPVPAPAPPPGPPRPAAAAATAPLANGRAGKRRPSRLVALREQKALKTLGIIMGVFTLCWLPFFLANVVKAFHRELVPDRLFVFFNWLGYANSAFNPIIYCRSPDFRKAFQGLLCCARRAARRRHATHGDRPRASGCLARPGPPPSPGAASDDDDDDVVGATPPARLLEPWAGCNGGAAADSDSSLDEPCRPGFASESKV

One may read the Kd as the constant that tells how readily two partners part at equilibrium. As a reminder, the melting point is the temperature of the solid-liquid transition. Turning to `COc1ccc(NC(=O)NCCNCC(O)COc2ccc(OCCOC3CCCC3)cc2)cc1` (centres unmarked) [47g], the melting point was 121 to 125 °C. The “Beta 2 Log KD” value at human beta2-adrenoceptor is −5.86 ± 0.04. Besides, the Kd on human beta3-adrenoceptor is 20 µM. Also, the “Beta 1 Log KD” value on beta1-adrenoceptor is given as −7.80 ± 0.04.
For `Cc1ccccc1NC(=O)NCCNCC(O)COc1ccc(OCCOC2CCCC2)cc1` (centres unmarked) [47b], the melting point lay in the range of 114 to 115 °C. In addition, the “Beta 2 Log KD” value on human beta2-adrenoceptor is recorded as −6.27 ± 0.02. The Kd at human beta3-adrenoceptor was 17.4 µM. The “Beta 1 Log KD” value on beta1-adrenoceptor was −7.33 ± 0.03.
In turn, `O=C(NCCNCC(O)COc1ccc(OCCOCCc2ccc(F)cc2)cc1)Nc1ccc(O)cc1` (centres unmarked) [46b] showed a melting point of 113 to 115 °C. For the same molecule, the Kd on human beta2-adrenoceptor was 1.02 µM. The Kd at human beta3-adrenoceptor was 1.12 µM. Further, the “Beta 1 Log KD” value at beta1-adrenoceptor is given as −8.50 ± 0.07.
For `O=C(NCCNCC(O)COc1ccc(OCCOC2CCCC2)cc1)c1ccccc1F` (centres unmarked) [54g], the melting point fell in the range of 75 to 76 °C. The Kd on human beta2-adrenoceptor was 1.74 µM. Further, the Kd on human beta3-adrenoceptor is 3.09 µM. For the same molecule, the Kd at beta1-adrenoceptor is 0.204 µM.
The corresponding values for `O=C(NCCNCC(O)COc1ccc(OCCOC2CCCC2)cc1)c1ccc(F)cc1` (centres unmarked) [54i] are 99 to 100 °C, 0.363 µM, 2.04 µM and 0.0275 µM.
`O=C(NCCNCC(O)COc1ccc(OCCOC2CCCC2)cc1)Nc1ccc(O)cc1` (centres unmarked) [47v] returned a melting point of 135 to 138 °C. The “Beta 2 Log KD” value at human beta2-adrenoceptor is listed as −5.45 ± 0.10. The Kd on human beta3-adrenoceptor is 8.32 µM. The Kd at beta1-adrenoceptor was 0.00692 µM.
In the case of `O=C(NCCNCC(O)COc1ccc(OCCOC2CCCC2)cc1)Nc1ccccc1C(F)(F)F` (centres unmarked) [47q], the melting point lay in the range of 128 to 130 °C. For the same molecule, the “Beta 2 Log KD” value on human beta2-adrenoceptor is −5.84 ± 0.02. Further, the Kd at human beta3-adrenoceptor was 24 µM. Moreover, on beta1-adrenoceptor, the “Beta 1 Log KD” value is −6.94 ± 0.01.
The like results for `COc1ccccc1NC(=O)NCCNCC(O)COc1ccc(OCCOC2CCCC2)cc1` (centres unmarked) [47e] were, in that order, 78 to 83 °C, −5.93 ± 0.02, 13.8 µM and −7.02 ± 0.04.
The like results for `O=C(NCCNCC(O)COc1ccc(OCCOC2CCCC2)cc1)Nc1ccccc1F` (centres unmarked) [47h] were, in that order, 115 to 117 °C, −5.94 ± 0.04, 21.4 µM and −7.82 ± 0.03.
With `O=C(NCCNCC(O)COc1ccc(OCCOC2CCCC2)cc1)Nc1ccc(Br)cc1` (centres unmarked) [47p], the melting point is 148 to 150 °C. Besides, the “Beta 2 Log KD” value on human beta2-adrenoceptor is −5.86 ± 0.04. The Kd on human beta3-adrenoceptor was 9.33 µM. On beta1-adrenoceptor, the “Beta 1 Log KD” value is given as −7.77 ± 0.04.
In turn, `O=C(NCCNCC(O)COc1ccc(OCCOC2CCCC2)cc1)Nc1ccc(F)c(F)c1` (centres unmarked) [54a, 1-(2-(3-(4-(2-(Cyclopentyloxy)ethoxy)phenoxy)-2-hydroxypropylamino)ethyl)-3-(3,4-difluorophenyl)urea] gave a melting point of 113 to 115 °C. At human beta2-adrenoceptor, the Kd is 1.32 µM. In addition, at human beta3-adrenoceptor, the Kd is 8.91 µM. Further, the Kd at beta1-adrenoceptor was 0.00955 µM.
In turn, `O=C(NCCNCC(O)COc1ccc(OCCOC2CCCC2)cc1)Nc1cccc(C(F)(F)F)c1` (centres unmarked) [47r] registered a melting point of 96 to 98 °C. The “Beta 2 Log KD” value at human beta2-adrenoceptor is −5.86 ± 0.06. The Kd at human beta3-adrenoceptor is 11.5 µM. Moreover, the “Beta 1 Log KD” value at beta1-adrenoceptor is −7.77 ± 0.06.
`O=C(NCCNCC(O)COc1ccc(OCCOC2CCCC2)cc1)Nc1ccc(C(F)(F)F)cc1` (centres unmarked) [47s]: the melting point fell in the range of 134 to 136 °C. In addition, the “Beta 2 Log KD” value at human beta2-adrenoceptor was −5.76 ± 0.04. Besides, the Kd at human beta3-adrenoceptor is 11.7 µM. Besides, the “Beta 1 Log KD” value at beta1-adrenoceptor was −7.70 ± 0.04.
On to `O=C(NCCNCC(O)COc1ccc(OCCOC2CCCC2)cc1)Nc1cccc(F)c1` (centres unmarked) [47i], for which the melting point was in the range of 108 to 110 °C. Further, at human beta2-adrenoceptor, the “Beta 2 Log KD” value is on record as −6.54 ± 0.02. At human beta3-adrenoceptor, the Kd was 18.6 µM. Further, at beta1-adrenoceptor, the “Beta 1 Log KD” value is on record as −8.17 ± 0.03.
